Reference: ChEMBL document CHEMBL4428125, “8-Substituted 1,3-dimethyltetrahydropyrazino[2,1-f]purinediones: Water-soluble adenosine receptor antagonists and monoamine oxidase B inhibitors” (Bioorg Med Chem, 2016)
Converted amounts (≈) assume the structure as drawn.

Columns and labels:
[1] = target: Adenosine receptor A2a (Rattus norvegicus) (UniProt P30543); test: Displacement of [3H]MSX from A2A receptor in rat brain striatum membranes at 1 uM measured after 30 mins by liquid scintillation counting method relative to control; assay type: cell membranes
Chain of Adenosine receptor A2a (Rattus norvegicus) (P30543 whole entry): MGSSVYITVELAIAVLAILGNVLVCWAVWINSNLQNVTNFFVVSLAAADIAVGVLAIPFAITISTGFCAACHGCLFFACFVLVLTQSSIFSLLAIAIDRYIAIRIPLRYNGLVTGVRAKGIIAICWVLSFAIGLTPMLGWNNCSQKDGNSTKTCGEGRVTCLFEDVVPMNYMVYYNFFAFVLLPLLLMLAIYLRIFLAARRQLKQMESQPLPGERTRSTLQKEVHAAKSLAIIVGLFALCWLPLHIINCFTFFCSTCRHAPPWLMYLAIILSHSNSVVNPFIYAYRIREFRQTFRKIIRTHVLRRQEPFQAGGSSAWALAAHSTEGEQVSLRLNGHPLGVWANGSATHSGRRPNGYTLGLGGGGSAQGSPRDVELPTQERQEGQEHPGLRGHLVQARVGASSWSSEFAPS

[2] = Thermodynamic solubility of the compound at pH 1; assay type: physicochemical; details: buffer, read-out: Therm_solubility
[3] = target: T1, Adenosine receptor A2b (Homo sapiens, UniProt P29275); test: Displacement of [3H]PSB-603 from human A2B receptor expressed in CHO cell membrane; assay type: cell membranes
T1 sequence (P29275 whole entry): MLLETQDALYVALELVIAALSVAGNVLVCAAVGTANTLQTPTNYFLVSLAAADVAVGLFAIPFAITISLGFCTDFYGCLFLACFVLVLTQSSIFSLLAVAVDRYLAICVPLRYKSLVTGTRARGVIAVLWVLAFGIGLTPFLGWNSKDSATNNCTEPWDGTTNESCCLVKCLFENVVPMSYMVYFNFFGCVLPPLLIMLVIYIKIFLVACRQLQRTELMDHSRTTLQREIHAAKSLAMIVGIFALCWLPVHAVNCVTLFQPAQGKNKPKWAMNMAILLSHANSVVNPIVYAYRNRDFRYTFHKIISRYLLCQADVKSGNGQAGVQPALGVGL

[4] = Thermodynamic solubility of the compound at pH 4; assay type: physicochemical; details: buffer, read-out: Therm_solubility
[5] = target: T2, Adenosine receptor A1 (Rattus norvegicus, UniProt P25099); test: Displacement of [3H]CCPA from A1 receptor in rat brain cortex membranes by liquid scintillation counting method; assay type: cell membranes
T2 sequence (P25099 whole entry): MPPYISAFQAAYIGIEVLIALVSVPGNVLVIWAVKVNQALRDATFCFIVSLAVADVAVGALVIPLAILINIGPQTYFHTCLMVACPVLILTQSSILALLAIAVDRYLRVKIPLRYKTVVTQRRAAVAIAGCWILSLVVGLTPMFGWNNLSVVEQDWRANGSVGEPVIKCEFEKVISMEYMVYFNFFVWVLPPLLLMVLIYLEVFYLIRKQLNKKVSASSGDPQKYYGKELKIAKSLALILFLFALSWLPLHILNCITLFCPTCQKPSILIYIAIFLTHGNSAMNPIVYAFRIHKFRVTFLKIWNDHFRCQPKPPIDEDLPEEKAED

[6] = target: T3, Adenosine receptor A3 (Homo sapiens, UniProt P0DMS8); test: Displacement of [3H]PSB-11 from human A3 receptor expressed in CHO cell membrane by liquid scintillation counting method relative to control; assay type: cell membranes
T3 sequence (P0DMS8 whole entry): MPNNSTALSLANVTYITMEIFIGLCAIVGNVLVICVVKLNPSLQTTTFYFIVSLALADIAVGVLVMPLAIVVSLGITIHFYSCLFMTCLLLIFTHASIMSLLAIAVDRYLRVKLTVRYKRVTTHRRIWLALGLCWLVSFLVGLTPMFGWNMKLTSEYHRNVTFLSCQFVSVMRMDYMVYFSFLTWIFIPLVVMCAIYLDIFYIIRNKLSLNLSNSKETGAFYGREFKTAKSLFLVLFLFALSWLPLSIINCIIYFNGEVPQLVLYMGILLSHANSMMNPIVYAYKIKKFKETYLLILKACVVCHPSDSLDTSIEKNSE

[7] = target: T4, Adenosine receptor A3 (Homo sapiens) (UniProt P0DMS8); test: Displacement of [3H]PSB-11 from human A3 receptor expressed in CHO cell membrane at 10 uM by liquid scintillation counting method relative to control relative to control; assay type: cell membranes
T4 sequence (whole entry): T3 sequence (P0DMS8 whole entry)

[8] = target: Adenosine receptor A2a (Rattus norvegicus, UniProt P30543); test: Displacement of [3H]MSX from A2A receptor in rat brain striatum membranes measured after 30 mins by liquid scintillation counting method; assay type: cell membranes
Chain of Adenosine receptor A2a (Rattus norvegicus, UniProt P30543) (P30543 whole entry): as the sequence (P30543 whole entry) above

[9] = target: T5, Adenosine receptor A2b (Homo sapiens) (UniProt P29275); test: Displacement of [3H]PSB-603 from human A2B receptor expressed in CHO cell membrane at 0.3 uM relative to control; assay type: cell membranes
T5 sequence (whole entry): T1 sequence (P29275 whole entry)

[10] = target: T6, Adenosine receptor A1 (Rattus norvegicus) (UniProt P25099); test: Displacement of [3H]CCPA from A1 receptor in rat brain cortex membranes at 1.5 uM by liquid scintillation counting method; assay type: cell membranes
T6 sequence (whole entry): T2 sequence (P25099 whole entry)

[11] = Thermodynamic solubility of the compound at pH 7.4; assay type: physicochemical; details: buffer, read-out: Therm_solubility
[12] = target: T7, Amine oxidase [flavin-containing] B (Homo sapiens, UniProt P27338); test: Inhibition of recombinant human MAO-B expressed in baculovirus infected BTI insect cells at 10 uM preincubated for 30 mins followed by addition of p-tyramine as substrate measured over 45 mins by Amplex Red MAO assay relative to control; details: 0.75 h
T7 sequence (P27338 whole entry): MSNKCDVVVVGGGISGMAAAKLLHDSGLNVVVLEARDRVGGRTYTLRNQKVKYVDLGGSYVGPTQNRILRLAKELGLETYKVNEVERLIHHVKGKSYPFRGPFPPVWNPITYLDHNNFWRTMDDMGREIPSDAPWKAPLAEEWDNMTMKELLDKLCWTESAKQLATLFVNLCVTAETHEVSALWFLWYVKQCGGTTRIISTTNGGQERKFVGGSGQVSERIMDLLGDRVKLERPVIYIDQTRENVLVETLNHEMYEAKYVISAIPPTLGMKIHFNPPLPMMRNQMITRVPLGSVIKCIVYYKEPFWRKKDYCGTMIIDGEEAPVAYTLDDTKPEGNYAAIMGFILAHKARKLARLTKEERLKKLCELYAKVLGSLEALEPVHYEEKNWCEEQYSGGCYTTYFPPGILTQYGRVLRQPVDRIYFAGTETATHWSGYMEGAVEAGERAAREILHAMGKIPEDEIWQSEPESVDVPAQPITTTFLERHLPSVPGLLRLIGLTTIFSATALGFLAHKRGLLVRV

[13] = target: T8, Amine oxidase [flavin-containing] A (Homo sapiens, UniProt P21397); test: Inhibition of recombinant human MAO-A expressed in baculovirus infected BTI insect cells at 10 uM preincubated for 30 mins followed by addition of p-tyramine as substrate measured over 45 mins by Amplex Red MAO assay relative to control; details: 0.75 h
T8 sequence (P21397 whole entry): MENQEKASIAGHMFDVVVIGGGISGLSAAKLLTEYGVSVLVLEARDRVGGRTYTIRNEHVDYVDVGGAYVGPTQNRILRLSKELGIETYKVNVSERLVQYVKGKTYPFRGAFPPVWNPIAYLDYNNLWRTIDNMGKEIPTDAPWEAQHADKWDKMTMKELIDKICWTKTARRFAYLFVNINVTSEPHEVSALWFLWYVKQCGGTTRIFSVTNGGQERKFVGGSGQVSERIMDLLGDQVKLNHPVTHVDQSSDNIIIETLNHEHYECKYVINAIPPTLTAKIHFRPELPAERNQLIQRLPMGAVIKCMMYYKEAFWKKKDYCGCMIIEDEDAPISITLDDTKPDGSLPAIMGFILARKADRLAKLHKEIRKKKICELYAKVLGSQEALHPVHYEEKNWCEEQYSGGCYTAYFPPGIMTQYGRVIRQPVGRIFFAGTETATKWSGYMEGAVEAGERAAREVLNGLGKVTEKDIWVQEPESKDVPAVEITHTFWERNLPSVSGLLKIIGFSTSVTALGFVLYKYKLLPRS

[14] = target: Adenosine receptor A2a (Homo sapiens, UniProt P29274); test: Displacement of [3H]MSX from human A2A receptor measured after 30 mins by liquid scintillation counting method
Chain of Adenosine receptor A2a (Homo sapiens, UniProt P29274) (P29274 whole entry): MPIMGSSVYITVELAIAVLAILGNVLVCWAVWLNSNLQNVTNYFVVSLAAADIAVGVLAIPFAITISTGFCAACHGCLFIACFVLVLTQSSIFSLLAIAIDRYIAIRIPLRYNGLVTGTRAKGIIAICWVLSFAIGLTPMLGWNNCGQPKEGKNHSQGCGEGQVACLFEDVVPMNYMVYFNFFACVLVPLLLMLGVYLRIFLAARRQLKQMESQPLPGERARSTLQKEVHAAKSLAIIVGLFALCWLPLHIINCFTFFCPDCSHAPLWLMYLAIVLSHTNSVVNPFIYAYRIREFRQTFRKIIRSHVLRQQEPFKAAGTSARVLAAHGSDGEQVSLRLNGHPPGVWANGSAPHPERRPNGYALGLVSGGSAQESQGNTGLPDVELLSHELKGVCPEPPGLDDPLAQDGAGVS

[15] = target: T5, Adenosine receptor A2b (Homo sapiens); test: Displacement of [3H]PSB-603 from human A2B receptor expressed in CHO cell membrane at 1 uM relative to control; assay type: cell membranes
[16] = target: T8, Amine oxidase [flavin-containing] A; test: Inhibition of recombinant human MAO-A expressed in baculovirus infected BTI insect cells preincubated for 30 mins followed by addition of p-tyramine as substrate measured over 45 mins by Amplex Red MAO assay
[17] = target: T9, Adenosine receptor A1 (Homo sapiens, UniProt P30542); test: Displacement of [3H]CCPA from human A1 receptor expressed in CHO cell membrane by liquid scintillation counting method; assay type: cell membranes
T9 sequence (P30542 whole entry): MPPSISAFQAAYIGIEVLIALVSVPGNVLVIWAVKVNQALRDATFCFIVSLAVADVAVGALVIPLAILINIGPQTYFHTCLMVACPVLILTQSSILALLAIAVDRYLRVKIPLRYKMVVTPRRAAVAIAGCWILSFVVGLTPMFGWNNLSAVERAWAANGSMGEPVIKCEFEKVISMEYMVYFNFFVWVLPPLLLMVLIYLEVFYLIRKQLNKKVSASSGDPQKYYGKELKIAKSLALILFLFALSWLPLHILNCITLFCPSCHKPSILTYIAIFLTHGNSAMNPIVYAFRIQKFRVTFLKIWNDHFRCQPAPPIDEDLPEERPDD

[18] = target: T4, Adenosine receptor A3 (Homo sapiens); test: Displacement of [3H]PSB-11 from human A3 receptor expressed in CHO cell membrane at 3 uM by liquid scintillation counting method relative to control relative to control; assay type: cell membranes
[19] = target: T7, Amine oxidase [flavin-containing] B; test: Inhibition of recombinant human MAO-B expressed in baculovirus infected BTI insect cells preincubated for 30 mins followed by addition of p-tyramine as substrate measured over 45 mins by Amplex Red MAO assay

Cn1c(=O)c2c(nc3n2CCN(CCc2cc(C(F)(F)F)ccc2F)C3)n(C)c1=O
Activity [1]: 25%
solubility thermodynamic [2]: 400 µg/mL (≈ 940 µM)
Ki [3]: > 300 nM
solubility thermodynamic [4]: < 0.5 µg/mL
Ki [5]: > 1500 nM
Ki [6]: > 10000 nM
Activity [7]: 14%
Ki [8]: > 1000 nM
Activity [9]: 13%
Activity [10]: 4%
solubility thermodynamic [11]: < 0.5 µg/mL
inhibition at 10 µM [12]: 58%

Cn1c(=O)c2c(nc3n2CCN(Cc2csc(-c4ccc(Cl)cc4)n2)C3)n(C)c1=O
inhibition at 10 µM [13]: 3%
Ki [14]: 346 nM
Activity [15]: 17%
Ki [3]: > 1000 nM
IC50 [16]: > 10000 nM
Ki [5]: 76 nM
Ki [6]: > 10000 nM
Activity [7]: 43%
Ki [8]: 62 nM
solubility thermodynamic [11]: < 0.5 µg/mL
inhibition at 10 µM [12]: 47%
Ki [17]: 492 nM

Cn1c(=O)c2c(nc3n2CCN(C2Cc4ccccc4C2)C3)n(C)c1=O
Activity [1]: 26%
Activity [18]: 11%
Activity [15]: 13%
Ki [3]: > 1000 nM
IC50 [19]: 7590 nM
Ki [5]: > 1500 nM
Ki [6]: > 3000 nM
Ki [8]: > 10000 nM
Activity [10]: 12%

Cn1c(=O)c2c(nc3n2CCN(CCc2cccc(Br)c2)C3)n(C)c1=O
solubility thermodynamic [2]: 700 µg/mL (≈ 1670 µM)
Ki [3]: > 300 nM
IC50 [19]: 3650 nM
solubility thermodynamic [4]: < 0.5 µg/mL
Ki [5]: > 1500 nM
Ki [6]: > 10000 nM
Activity [7]: 42%
Ki [8]: 2120 nM
Activity [9]: 29%
Activity [10]: 26%
solubility thermodynamic [11]: < 0.5 µg/mL

Cn1c(=O)c2c(nc3n2CCN(CCOc2ccccc2)C3)n(C)c1=O
inhibition at 10 µM [13]: 11%
Activity [1]: 24%
solubility thermodynamic [2]: 1100 µg/mL (≈ 3100 µM)
Ki [3]: > 300 nM
IC50 [19]: > 10000 nM
solubility thermodynamic [4]: 60 µg/mL (≈ 169 µM)
IC50 [16]: > 10000 nM
Ki [5]: > 1500 nM
Ki [6]: > 10000 nM
Activity [7]: 32%
Ki [8]: > 1000 nM
Activity [9]: 4%
Activity [10]: -1%
solubility thermodynamic [11]: 20 µg/mL (≈ 56.3 µM)
inhibition at 10 µM [12]: 16%

Cn1c(=O)c2c(nc3n2CCN(CCCc2cccc(Br)c2)C3)n(C)c1=O
inhibition at 10 µM [13]: 16%
Ki [14]: 512 nM
Activity [15]: 19%
solubility thermodynamic [2]: 100 µg/mL (≈ 231 µM)
Ki [3]: > 1000 nM
IC50 [19]: > 10000 nM
solubility thermodynamic [4]: < 0.5 µg/mL
IC50 [16]: > 10000 nM
Ki [5]: > 1500 nM
Ki [6]: > 10000 nM
Activity [7]: 35%
Ki [8]: 450 nM
Activity [10]: 17%
solubility thermodynamic [11]: < 0.5 µg/mL
inhibition at 10 µM [12]: 26%
Ki [17]: 3880 nM

Cn1c(=O)c2c(nc3n2CCN(Cc2csc(-c4cccc(Cl)c4)n2)C3)n(C)c1=O
inhibition at 10 µM [13]: -13%
Ki [14]: 363 nM
Activity [15]: 6%
Ki [3]: > 1000 nM
IC50 [19]: > 10000 nM
IC50 [16]: > 10000 nM
Ki [5]: 437 nM
Ki [6]: > 10000 nM
Activity [7]: 40%
Ki [8]: 160 nM
solubility thermodynamic [11]: 2 µg/mL (≈ 4.52 µM)
inhibition at 10 µM [12]: -2%
Ki [17]: 73 nM

Cn1c(=O)c2c(nc3n2CCN(C2CCc4ccccc42)C3)n(C)c1=O (racemic)
solubility thermodynamic [2]: 1000 µg/mL (≈ 2850 µM)
Ki [3]: > 300 nM
IC50 [19]: 2130 nM
solubility thermodynamic [4]: 1 µg/mL (≈ 2.85 µM)
Ki [5]: > 1500 nM
Ki [6]: > 10000 nM
Activity [7]: 45%
Ki [8]: 4210 nM
Activity [9]: 10%
Activity [10]: 32%
solubility thermodynamic [11]: < 0.5 µg/mL
